Source: ChEMBL document CHEMBL4800722, “Data for DCP probe BI 605906” (2021)

Key:
[1] = biological target: Mitogen-activated protein kinase 8 (Homo sapiens) (UniProt P45983)
[2] = biological target: Platelet-derived growth factor receptor beta (Homo sapiens) (UniProt P09619)
[3] = biological target: G protein-coupled receptor kinase 6 (Homo sapiens) (UniProt P43250); conditions: Compound concentration 1.0 uM
[4] = biological target: Aurora kinase B (Homo sapiens) (UniProt Q96GD4); experiment: AURORA B DUNDEE kinase screen (BI); conditions: Compound concentration 10.0 uM
Chain of Aurora kinase B (Homo sapiens) (Q96GD4 whole entry): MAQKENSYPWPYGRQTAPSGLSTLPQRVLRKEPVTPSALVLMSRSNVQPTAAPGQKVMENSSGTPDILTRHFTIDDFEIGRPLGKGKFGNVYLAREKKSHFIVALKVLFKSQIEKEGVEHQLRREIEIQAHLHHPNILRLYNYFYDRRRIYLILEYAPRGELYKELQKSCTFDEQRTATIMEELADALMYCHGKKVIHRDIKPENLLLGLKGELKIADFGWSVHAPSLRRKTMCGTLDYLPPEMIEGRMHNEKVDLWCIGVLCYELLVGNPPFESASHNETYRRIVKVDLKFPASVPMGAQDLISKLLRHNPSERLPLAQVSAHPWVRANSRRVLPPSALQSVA

[5] = biological target: Mitogen-activated protein kinase kinase kinase 11 (Homo sapiens) (UniProt Q16584); conditions: Compound concentration 1.0 uM
[6] = biological target: Beta-3 adrenergic receptor (Homo sapiens) (UniProt P13945); conditions: Compound concentration 10.0 uM
[7] = biological target: Ribosomal protein S6 kinase alpha-1 (Homo sapiens) (UniProt Q15418); experiment: MAPKAPK1A DUNDEE kinase screen (BI); conditions: Rattus norvegicus; Compound concentration 10.0 uM
[8] = biological target: Myosin light chain kinase 2, skeletal/cardiac muscle (Homo sapiens) (UniProt Q9H1R3); conditions: Compound concentration 1.0 uM
[9] = biological target: Serine/threonine-protein kinase PAK 3 (Homo sapiens) (UniProt O75914); conditions: Compound concentration 1.0 uM
[10] = biological target: Mitogen-activated protein kinase kinase kinase 3 (Homo sapiens) (UniProt Q99759); conditions: Compound concentration 1.0 uM
[11] = biological target: Calcium/calmodulin-dependent protein kinase type II subunit alpha (Homo sapiens) (UniProt Q9UQM7); conditions: Compound concentration 1.0 uM
[12] = biological target: Glycogen synthase kinase-3 alpha (Homo sapiens) (UniProt P49840); conditions: Compound concentration 1.0 uM
[13] = biological target: Serine/threonine-protein kinase PAK 2 (Homo sapiens) (UniProt Q13177); conditions: Compound concentration 1.0 uM
[14] = biological target: Serine/threonine-protein kinase Nek2 (Homo sapiens) (UniProt P51955); conditions: Compound concentration 1.0 uM
[15] = biological target: Calcium/calmodulin-dependent protein kinase type 1G (Homo sapiens) (UniProt Q96NX5); conditions: Compound concentration 1.0 uM
[16] = biological target: Serine/threonine-protein kinase D1 (Homo sapiens) (UniProt Q15139); experiment: PRKD1 Invitrogen Lab (UK) kinase screen (BI); conditions: Compound concentration 1.0 uM
[17] = biological target: Receptor-interacting serine/threonine-protein kinase 3 (Homo sapiens) (UniProt Q9Y572); conditions: Compound concentration 1.0 uM
[18] = biological target: AP2-associated protein kinase 1 (Homo sapiens, UniProt Q2M2I8); experiment: Dose response measurement (AAK1)
[19] = biological target: 5-hydroxytryptamine receptor 2C (Homo sapiens) (UniProt P28335); conditions: Compound concentration 10.0 uM
[20] = biological target: Fibroblast growth factor receptor 4 (Homo sapiens) (UniProt P22455); conditions: Compound concentration 1.0 uM
[21] = biological target: Calcitonin-gene-related peptide receptor, CALCRL/RAMP1 (Homo sapiens) (UniProt O60894+Q16602)
[22] = biological target: Serine/threonine-protein kinase B-raf (Homo sapiens) (UniProt P15056); experiment: BRAF Invitrogen Lab (UK) kinase screen (BI); conditions: Compound concentration 1.0 uM
[23] = biological target: Tyrosine-protein kinase JAK3 (Homo sapiens) (UniProt P52333)
[24] = biological target: Cyclin-dependent kinase 2/cyclin E1 (Homo sapiens) (UniProt P24864+P24941); conditions: Compound concentration 1.0 uM
[25] = biological target: Casein kinase I isoform gamma-2 (Homo sapiens) (UniProt P78368)
Chain of Casein kinase I isoform gamma-2 (Homo sapiens) (P78368 whole entry, looked up, canonical isoform): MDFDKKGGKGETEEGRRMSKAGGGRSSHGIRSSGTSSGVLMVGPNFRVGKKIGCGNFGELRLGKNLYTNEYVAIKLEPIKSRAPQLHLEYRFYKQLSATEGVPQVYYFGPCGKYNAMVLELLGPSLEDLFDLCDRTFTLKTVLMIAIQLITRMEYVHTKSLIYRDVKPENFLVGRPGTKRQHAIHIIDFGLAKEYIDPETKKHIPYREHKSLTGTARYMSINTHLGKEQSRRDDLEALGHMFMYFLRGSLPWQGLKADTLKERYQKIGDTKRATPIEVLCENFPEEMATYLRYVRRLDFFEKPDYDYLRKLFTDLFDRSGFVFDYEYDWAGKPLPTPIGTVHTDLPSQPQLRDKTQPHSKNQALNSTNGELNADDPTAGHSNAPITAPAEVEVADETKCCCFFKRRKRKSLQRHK

[26] = biological target: 5-hydroxytryptamine receptor 1A (Homo sapiens) (UniProt P08908); conditions: Compound concentration 10.0 uM
[27] = biological target: 5-hydroxytryptamine receptor 5A (Homo sapiens) (UniProt P47898); conditions: Compound concentration 10.0 uM
[28] = biological target: Mitogen-activated protein kinase kinase kinase 8 (Homo sapiens) (UniProt P41279); conditions: Compound concentration 1.0 uM
[29] = biological target: Mast/stem cell growth factor receptor Kit (Homo sapiens) (UniProt P10721)
Chain of Mast/stem cell growth factor receptor Kit (Homo sapiens) (P10721 whole entry): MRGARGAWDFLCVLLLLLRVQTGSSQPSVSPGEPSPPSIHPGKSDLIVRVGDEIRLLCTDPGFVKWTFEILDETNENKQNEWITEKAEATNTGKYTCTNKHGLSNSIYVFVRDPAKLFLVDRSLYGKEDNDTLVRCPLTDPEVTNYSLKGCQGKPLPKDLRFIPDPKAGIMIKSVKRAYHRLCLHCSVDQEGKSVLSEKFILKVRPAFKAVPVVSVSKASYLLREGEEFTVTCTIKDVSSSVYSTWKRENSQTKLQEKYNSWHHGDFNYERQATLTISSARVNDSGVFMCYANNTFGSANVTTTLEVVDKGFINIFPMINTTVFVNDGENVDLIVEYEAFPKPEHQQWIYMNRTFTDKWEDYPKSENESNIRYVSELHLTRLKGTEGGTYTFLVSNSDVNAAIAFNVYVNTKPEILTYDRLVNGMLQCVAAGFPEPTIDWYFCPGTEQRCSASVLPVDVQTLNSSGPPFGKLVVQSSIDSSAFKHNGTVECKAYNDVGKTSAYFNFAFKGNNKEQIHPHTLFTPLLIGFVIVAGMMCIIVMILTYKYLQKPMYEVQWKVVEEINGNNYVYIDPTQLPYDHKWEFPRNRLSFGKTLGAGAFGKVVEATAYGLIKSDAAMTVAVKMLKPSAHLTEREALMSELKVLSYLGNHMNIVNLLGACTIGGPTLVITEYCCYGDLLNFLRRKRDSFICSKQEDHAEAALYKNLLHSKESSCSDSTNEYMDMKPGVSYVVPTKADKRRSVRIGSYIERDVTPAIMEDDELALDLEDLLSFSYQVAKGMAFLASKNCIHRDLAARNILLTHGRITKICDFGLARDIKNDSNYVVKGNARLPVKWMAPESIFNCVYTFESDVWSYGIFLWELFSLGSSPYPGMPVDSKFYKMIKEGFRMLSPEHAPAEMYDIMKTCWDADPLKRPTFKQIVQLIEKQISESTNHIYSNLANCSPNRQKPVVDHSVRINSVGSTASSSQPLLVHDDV

[30] = biological target: Serine/threonine-protein kinase PLK1 (Homo sapiens) (UniProt P53350)
Chain of Serine/threonine-protein kinase PLK1 (Homo sapiens) (P53350 whole entry): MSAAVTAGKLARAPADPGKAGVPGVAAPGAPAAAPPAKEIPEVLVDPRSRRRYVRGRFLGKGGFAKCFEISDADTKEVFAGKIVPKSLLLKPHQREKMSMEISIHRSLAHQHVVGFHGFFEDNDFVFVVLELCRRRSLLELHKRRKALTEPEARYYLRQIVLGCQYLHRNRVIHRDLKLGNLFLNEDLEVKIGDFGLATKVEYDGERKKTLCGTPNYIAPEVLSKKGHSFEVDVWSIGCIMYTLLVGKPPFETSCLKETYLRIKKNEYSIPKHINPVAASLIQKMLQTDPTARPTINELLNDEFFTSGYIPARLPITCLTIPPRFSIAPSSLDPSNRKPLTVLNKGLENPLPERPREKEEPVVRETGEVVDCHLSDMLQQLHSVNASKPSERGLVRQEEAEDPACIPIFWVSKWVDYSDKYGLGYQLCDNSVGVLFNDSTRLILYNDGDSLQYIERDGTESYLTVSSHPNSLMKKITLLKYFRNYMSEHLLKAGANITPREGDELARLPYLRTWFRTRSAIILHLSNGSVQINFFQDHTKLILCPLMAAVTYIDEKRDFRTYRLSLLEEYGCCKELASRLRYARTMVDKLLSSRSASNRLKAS

[31] = biological target: Tyrosine-protein kinase CSK (Homo sapiens) (UniProt P41240)
Chain of Tyrosine-protein kinase CSK (Homo sapiens) (P41240 2-450 limits assumed): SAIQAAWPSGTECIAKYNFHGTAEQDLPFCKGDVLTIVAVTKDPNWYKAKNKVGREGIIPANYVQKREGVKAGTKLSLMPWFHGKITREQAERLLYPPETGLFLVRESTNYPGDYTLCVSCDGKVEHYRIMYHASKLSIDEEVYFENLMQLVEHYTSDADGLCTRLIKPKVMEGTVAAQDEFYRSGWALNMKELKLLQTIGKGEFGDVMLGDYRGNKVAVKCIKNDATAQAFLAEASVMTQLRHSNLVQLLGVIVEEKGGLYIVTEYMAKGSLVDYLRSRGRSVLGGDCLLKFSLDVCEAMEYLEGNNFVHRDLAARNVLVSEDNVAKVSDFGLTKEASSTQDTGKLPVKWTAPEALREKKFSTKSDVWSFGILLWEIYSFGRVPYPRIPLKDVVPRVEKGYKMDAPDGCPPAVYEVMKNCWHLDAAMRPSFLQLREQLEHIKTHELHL

[32] = biological target: Muscarinic acetylcholine receptor M3 (Homo sapiens) (UniProt P20309); conditions: Compound concentration 10.0 uM
Chain of Muscarinic acetylcholine receptor M3 (Homo sapiens) (P20309 whole entry, looked up): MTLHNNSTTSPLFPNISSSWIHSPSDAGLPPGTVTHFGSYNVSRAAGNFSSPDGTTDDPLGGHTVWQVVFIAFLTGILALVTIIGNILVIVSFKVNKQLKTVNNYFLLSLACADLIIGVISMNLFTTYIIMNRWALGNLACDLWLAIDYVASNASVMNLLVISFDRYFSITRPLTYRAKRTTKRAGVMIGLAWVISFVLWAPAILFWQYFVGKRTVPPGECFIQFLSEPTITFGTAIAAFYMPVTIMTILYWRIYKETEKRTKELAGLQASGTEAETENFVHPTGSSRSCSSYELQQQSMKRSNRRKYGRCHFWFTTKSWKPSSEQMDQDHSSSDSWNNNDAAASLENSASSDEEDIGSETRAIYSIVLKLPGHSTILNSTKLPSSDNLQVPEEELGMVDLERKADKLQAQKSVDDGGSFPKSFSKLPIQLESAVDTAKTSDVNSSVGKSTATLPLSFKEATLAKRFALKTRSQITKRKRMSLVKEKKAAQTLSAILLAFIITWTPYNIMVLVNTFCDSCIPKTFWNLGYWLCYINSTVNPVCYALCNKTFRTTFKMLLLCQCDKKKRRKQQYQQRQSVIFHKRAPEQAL

[33] = biological target: Serine/threonine-protein kinase 16 (Homo sapiens) (UniProt O75716); conditions: Compound concentration 1.0 uM
[34] = biological target: MAP kinase-activated protein kinase 2 (Homo sapiens) (UniProt P49137); experiment: MAPKAPK2 DUNDEE kinase screen (BI); conditions: Compound concentration 10.0 uM
[35] = biological target: CDK6/cyclin D1 (Homo sapiens) (UniProt P24385+Q00534); conditions: Compound concentration 1.0 uM
[36] = biological target: RAC-beta serine/threonine-protein kinase (Homo sapiens) (UniProt P31751); experiment: PKB-BETA DUNDEE kinase screen (BI); conditions: Compound concentration 10.0 uM
[37] = biological target: Mitogen-activated protein kinase kinase kinase kinase 4 (Homo sapiens) (UniProt O95819)
Chain of Mitogen-activated protein kinase kinase kinase kinase 4 (Homo sapiens) (O95819 2-1239 limits assumed): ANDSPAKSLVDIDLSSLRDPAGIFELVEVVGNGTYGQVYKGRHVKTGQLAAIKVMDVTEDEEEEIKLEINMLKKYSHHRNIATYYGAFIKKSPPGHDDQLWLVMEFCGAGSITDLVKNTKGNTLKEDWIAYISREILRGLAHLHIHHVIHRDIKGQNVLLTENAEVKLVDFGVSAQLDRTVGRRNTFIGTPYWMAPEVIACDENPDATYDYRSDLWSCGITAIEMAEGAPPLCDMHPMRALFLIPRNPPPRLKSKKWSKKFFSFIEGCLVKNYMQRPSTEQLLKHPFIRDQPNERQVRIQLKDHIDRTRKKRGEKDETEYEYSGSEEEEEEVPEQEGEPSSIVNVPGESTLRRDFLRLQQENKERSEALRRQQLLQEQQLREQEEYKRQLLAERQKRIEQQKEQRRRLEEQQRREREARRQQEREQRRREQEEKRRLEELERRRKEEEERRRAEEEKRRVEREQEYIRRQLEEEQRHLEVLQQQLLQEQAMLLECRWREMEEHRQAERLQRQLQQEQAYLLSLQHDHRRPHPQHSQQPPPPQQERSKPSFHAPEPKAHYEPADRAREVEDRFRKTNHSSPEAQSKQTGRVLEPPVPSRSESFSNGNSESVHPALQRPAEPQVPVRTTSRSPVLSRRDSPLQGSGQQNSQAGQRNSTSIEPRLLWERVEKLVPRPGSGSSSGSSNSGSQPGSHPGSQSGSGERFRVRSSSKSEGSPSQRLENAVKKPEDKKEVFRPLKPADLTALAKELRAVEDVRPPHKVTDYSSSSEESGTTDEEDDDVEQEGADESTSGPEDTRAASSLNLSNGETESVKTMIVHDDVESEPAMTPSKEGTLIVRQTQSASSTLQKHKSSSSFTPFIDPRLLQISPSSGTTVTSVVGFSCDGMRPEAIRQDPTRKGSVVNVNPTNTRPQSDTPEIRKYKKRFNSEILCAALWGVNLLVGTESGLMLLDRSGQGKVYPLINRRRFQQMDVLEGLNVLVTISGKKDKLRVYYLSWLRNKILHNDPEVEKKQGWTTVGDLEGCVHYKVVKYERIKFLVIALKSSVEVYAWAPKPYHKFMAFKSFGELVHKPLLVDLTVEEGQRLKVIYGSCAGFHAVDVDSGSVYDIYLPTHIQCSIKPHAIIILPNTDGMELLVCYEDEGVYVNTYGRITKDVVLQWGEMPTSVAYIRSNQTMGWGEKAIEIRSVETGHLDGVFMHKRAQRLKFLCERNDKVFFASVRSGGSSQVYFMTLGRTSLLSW

[38] = biological target: Alpha-2C adrenergic receptor (Homo sapiens) (UniProt P18825); conditions: Compound concentration 10.0 uM
[39] = biological target: G protein-coupled receptor kinase 3 (Homo sapiens) (UniProt P35626); conditions: Compound concentration 1.0 uM
[40] = biological target: Serine/threonine-protein kinase SIK1 (Homo sapiens) (UniProt P57059); conditions: Compound concentration 1.0 uM
[41] = biological target: AMPK alpha1/beta2/gamma1 (Homo sapiens) (UniProt O43741+P54619+Q13131); conditions: Compound concentration 1.0 uM
[42] = biological target: NUAK family SNF1-like kinase 2 (Homo sapiens) (UniProt Q9H093); experiment: NUAK2 Invitrogen Lab (UK) kinase screen (BI); conditions: Compound concentration 1.0 uM

Chain of Mitogen-activated protein kinase 8 (Homo sapiens) (P45983 whole entry): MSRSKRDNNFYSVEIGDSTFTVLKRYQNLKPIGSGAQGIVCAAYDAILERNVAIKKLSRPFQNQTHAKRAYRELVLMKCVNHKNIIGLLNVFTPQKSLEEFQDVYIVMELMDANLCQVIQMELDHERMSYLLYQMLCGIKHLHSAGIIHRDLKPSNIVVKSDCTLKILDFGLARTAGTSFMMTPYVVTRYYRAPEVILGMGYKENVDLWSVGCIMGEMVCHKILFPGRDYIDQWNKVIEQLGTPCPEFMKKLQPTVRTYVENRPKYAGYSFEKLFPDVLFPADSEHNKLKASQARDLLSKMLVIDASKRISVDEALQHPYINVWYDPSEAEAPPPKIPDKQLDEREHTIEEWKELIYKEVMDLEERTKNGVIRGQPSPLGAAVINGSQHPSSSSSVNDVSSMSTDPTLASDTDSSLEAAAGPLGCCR

SMILES: CCC(F)(F)c1cc(N2CCC(S(C)(=O)=O)CC2)nc2sc(C(N)=O)c(N)c12 [BI-605906]
- residual activity ([1]; Compound concentration 1.0 uM): 91%
- residual activity ([1]; Compound concentration 10.0 uM): 100%
- residual activity ([2]; Compound concentration 1.0 uM): 89%
- residual activity ([2]; Compound concentration 10.0 uM): 87%
- residual activity [3]: 93%
- residual activity [4]: 60.9%
- residual activity [5]: 95%
- inhibition [6]: 18%
- residual activity [7]: 77.5%
- residual activity [8]: 98%
- residual activity [9]: 101%
- residual activity [10]: 98%
- residual activity [11]: 100%
- residual activity [12]: 99%
- residual activity [13]: 95%
- residual activity [14]: 93%
- residual activity [15]: 90%
- residual activity [16]: 83%
- residual activity [17]: 100%
- IC50 [18]: 272 nM
- inhibition [19]: -5.41%
- residual activity [20]: 96%
- residual activity ([21]; Compound concentration 10.0 uM): 99%
- residual activity ([21]; Compound concentration 100.0 uM): 96%
- residual activity [22]: 72%
- residual activity ([23]; Compound concentration 1.0 uM): 92%
- residual activity ([23]; Compound concentration 10.0 uM): 95%
- residual activity [24]: 94%
- residual activity ([25]; Compound concentration 1.0 uM): 96%
- residual activity ([25]; Compound concentration 10.0 uM): 94%
- inhibition [26]: 14.4%
- inhibition [27]: 6.16%
- residual activity [28]: 90%
- residual activity ([29]; Compound concentration 1.0 uM): 89%
- residual activity ([29]; Compound concentration 10.0 uM): 83%
- residual activity ([30]; Compound concentration 1.0 uM): 94%
- residual activity ([30]; Compound concentration 10.0 uM): 109%
- residual activity ([31]; Compound concentration 1.0 uM): 96%
- residual activity ([31]; Compound concentration 10.0 uM): 84%
- inhibition [32]: 21.1%
- residual activity [33]: 91%
- residual activity [34]: 94.5%
- residual activity [35]: 100%
- residual activity [36]: 98.1%
- residual activity ([37]; Compound concentration 1.0 uM): 95%
- residual activity ([37]; Compound concentration 10.0 uM): 89%
- inhibition [38]: 13.7%
- residual activity [39]: 96%
- residual activity [40]: 92%
- residual activity [41]: 91%
- residual activity [42]: 86%
